Reference: US12044651B2, “Sensor device and methods” (SCENTIAN BIO LIMITED, priority 2016, dated 2024)
Read-outs that look alike come from different tables or passages of the source. Marks after values point to notes of the source that are not given here.

Legend:
[1] = tested on: AgOR8/Orco; conditions: ref 33; cited from earlier work
[2] = tested on: OBP proteins; conditions: ref 41; cited from earlier work
[3] = target: DOr85b/Orco (Drosophila melanogaster, UniProt Q9VHQ7); conditions: cited from earlier work
[4] = target: T1, OR71a (Drosophila melanogaster, UniProt Q9VUK5); assay: CNT-FET sensor covalently functionalized with Or71a nanodiscs (Example 3); assay type: binding
T1 sequence (Q9VUK5 1-378): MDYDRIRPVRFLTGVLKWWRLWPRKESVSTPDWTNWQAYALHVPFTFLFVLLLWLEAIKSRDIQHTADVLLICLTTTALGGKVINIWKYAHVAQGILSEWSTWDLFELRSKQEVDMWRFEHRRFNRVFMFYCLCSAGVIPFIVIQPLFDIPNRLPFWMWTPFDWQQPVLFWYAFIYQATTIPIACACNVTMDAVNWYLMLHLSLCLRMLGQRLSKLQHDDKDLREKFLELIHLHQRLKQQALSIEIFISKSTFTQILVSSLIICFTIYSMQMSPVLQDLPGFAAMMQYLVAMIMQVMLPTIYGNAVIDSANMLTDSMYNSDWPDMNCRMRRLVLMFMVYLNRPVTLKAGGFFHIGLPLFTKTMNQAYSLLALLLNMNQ
Experimental: The dispersion was sonicated until a clear solution was obtained. The temperature was kept at 25° C. throughout the sonication process. The thiolpyridine solution was prepared by dissolving 10 mg of 2-Mercaptopyridine (99%, Sigma Aldrich) in 1 ml of methanol. The solution was spun coated on a polydimethylsiloxane (PDMS) surface at 2000 rpm for one minute. Before the spin coating process, the PDMS surface was cleaned by a 50 W Oxygen plasma for 1 minute to improve the wettability. The cleaned substrates were placed upside down on the PDMS surface for three minutes and washed in ethanol to remove the excess thiolpyridine molecules. Then the substrates were transferred into the CNT suspension and immersed into the suspension for 10 minutes. The samples were removed from the suspension and dipped into Ethanol for another 10 minutes to remove the thiolpyridine molecules in the SWNT network. The alignment markers were deposited by defining the markers by photolithography and thermal evaporation of 5 nm Chromium and 50 nm of Gold. The metal Lift off was done by acetone immersion for 15 minutes followed by an Isopropyl alcohol (IPA) wash and N2 blow dry. The result is a uniform thin film CNT network covering the entire substrate surface. The purification procedure is a variation on the one detailed in […] et al. 2013^14. […] Purity was assessed on Coomassie stained SDS-PAGE gels and Western blotting. […]

[5] = target: T1, OR71a; assay: EIS sensor, Or71a liposomes on gold electrode, optimized conditions (Example 5); assay type: binding; conditions: EIS
[6] = target: T2, AgOR1/Orco (Anopheles gambiae, UniProt Q8WTE7); conditions: ref 33; cited from earlier work
T2 construct: host or cells: Xenopus oocytes

[7] = tested on: ApolOR1/Orco; conditions: +ApolPBP2; estimated visually from graph; cited from earlier work
[8] = tested on: BmOR3/Orco; conditions: ref 13; cited from earlier work
[9] = tested on: BmOR3/Orco; conditions: cited from earlier work
[10] = tested on: BmOR1/Orco; conditions: cited from earlier work
[11] = tested on: BmOr1/Orco; conditions: cited from earlier work
[12] = tested on: BmOR1/Ocro; conditions: ref 13; cited from earlier work
[13] = tested on: EpOR3/Orco; conditions: estimated visually from graph; cited from earlier work
[14] = tested on: ECB (Z) OR3/Orco; conditions: ref 2; cited from earlier work
[15] = tested on: OscaOR1/Orco; conditions: cited from earlier work
[16] = tested on: OnOr1/Orco; conditions: ref 32; cited from earlier work
[17] = tested on: DiOR1/Orco; conditions: cited from earlier work
[18] = tested on: SexiOR13/Orco; conditions: ref 26; cited from earlier work
[19] = tested on: SexiOR16/Orco; conditions: ref 26; cited from earlier work
[20] = tested on: HVOR6/Orco; conditions: ref 31; cited from earlier work
[21] = tested on: MsiOR1/Orco; conditions: cited from earlier work
[22] = tested on: HVOR13/Orco; conditions: ref 31; cited from earlier work
[23] = tested on: PxOR1/Orco; conditions: cited from earlier work
[24] = tested on: BmOr47/Orco; conditions: cited from earlier work
[25] = tested on: BmOr45/Orco; conditions: cited from earlier work
[26] = target: DmOr22a/Orco (Drosophila melanogaster, UniProt P81909); conditions: cited from earlier work
[27] = tested on: AgOr65/Orco; conditions: given as Log, cited from earlier work
[28] = tested on: AgOr65/Orco; conditions: ref 33; cited from earlier work
[29] = tested on: AgOr48/Orco; conditions: given as Log, cited from earlier work
[30] = tested on: BdorOBP2; conditions: ref 39; cited from earlier work
[31] = tested on: EpOR1/Orco; conditions: cited from earlier work
[32] = tested on: EpOR3/Orco; conditions: ref 19; cited from earlier work
[33] = target: T3, AgOR2/Orco (Anopheles gambiae, UniProt Q8WTE6); conditions: ref 33; cited from earlier work
T3 construct: host or cells: Xenopus oocytes

[34] = tested on: AgOr10/Orco; conditions: ref 33; cited from earlier work
[35] = tested on: BmOr19/Orco; conditions: cited from earlier work

Chain of DmOr22a/Orco (P81909 whole entry): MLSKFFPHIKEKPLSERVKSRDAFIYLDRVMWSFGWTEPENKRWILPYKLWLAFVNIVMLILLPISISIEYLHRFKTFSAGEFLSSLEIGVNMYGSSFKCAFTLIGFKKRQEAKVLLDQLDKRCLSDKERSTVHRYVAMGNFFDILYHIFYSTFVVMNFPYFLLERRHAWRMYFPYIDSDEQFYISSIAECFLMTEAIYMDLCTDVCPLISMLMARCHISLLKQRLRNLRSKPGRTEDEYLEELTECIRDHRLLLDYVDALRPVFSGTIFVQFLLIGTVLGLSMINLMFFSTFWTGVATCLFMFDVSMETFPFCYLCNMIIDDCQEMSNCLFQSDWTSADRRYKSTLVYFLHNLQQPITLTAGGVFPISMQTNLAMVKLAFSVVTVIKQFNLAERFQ
Chain of DOr85b/Orco (Q9VHQ7 whole entry): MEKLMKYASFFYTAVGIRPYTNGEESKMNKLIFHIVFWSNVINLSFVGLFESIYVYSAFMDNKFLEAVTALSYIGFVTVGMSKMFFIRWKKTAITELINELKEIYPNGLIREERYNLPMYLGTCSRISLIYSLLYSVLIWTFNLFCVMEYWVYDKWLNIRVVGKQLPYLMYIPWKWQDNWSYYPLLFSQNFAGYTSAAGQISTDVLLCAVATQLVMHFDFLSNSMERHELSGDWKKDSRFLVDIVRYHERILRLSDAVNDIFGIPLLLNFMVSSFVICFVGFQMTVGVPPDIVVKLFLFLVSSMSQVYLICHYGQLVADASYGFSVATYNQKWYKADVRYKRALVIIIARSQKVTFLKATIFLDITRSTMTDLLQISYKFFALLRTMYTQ
Chain of DOr85b/Orco (Q9VNB5 whole entry partner): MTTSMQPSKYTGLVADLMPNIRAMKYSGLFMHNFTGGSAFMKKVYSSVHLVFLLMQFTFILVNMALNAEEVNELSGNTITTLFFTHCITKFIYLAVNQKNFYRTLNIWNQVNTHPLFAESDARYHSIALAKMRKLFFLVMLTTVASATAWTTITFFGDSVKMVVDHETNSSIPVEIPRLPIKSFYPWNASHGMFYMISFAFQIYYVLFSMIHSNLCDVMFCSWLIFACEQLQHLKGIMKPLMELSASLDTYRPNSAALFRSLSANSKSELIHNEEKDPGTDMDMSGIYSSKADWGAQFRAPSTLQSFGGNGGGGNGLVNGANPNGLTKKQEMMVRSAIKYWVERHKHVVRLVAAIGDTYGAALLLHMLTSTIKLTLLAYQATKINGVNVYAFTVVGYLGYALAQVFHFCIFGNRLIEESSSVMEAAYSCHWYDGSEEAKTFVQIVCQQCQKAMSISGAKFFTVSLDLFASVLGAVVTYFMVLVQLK
T2 sequence (Q8WTE7 whole entry): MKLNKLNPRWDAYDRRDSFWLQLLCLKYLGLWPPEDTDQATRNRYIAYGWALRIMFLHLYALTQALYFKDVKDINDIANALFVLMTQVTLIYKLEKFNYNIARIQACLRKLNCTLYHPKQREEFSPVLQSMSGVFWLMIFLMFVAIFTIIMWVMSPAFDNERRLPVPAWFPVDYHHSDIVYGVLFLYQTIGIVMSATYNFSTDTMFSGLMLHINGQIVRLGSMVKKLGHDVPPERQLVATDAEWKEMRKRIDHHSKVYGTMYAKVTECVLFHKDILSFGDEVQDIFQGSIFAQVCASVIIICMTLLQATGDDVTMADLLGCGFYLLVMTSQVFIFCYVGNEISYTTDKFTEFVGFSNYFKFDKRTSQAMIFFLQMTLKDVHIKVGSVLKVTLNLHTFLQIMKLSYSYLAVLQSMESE
T2 sequence (Q7QCC7 whole entry partner): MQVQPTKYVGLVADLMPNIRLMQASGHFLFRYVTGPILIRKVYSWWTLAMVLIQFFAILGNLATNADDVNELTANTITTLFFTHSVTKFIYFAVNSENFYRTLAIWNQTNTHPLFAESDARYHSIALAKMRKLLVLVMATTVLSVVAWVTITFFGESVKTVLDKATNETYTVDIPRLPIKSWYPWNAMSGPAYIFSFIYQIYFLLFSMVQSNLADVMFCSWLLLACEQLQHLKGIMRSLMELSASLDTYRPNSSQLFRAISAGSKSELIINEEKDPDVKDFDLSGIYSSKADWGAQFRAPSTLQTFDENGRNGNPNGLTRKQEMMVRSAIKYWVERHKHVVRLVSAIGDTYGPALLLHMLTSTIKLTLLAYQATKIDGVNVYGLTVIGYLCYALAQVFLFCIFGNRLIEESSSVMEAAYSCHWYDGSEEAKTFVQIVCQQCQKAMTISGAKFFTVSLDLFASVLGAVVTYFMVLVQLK
T3 sequence (Q8WTE6 whole entry): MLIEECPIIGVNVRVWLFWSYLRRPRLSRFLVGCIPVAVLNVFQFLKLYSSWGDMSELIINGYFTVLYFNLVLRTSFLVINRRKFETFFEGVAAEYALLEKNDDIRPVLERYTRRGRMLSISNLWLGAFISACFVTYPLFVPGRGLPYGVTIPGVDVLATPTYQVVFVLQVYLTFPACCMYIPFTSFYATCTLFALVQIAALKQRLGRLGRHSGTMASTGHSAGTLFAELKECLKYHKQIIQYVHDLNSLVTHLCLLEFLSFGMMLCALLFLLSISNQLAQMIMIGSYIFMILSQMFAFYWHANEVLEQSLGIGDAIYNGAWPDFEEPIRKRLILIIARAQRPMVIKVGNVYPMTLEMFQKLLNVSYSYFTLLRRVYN
T3 sequence (Q7QCC7 whole entry partner): as the sequence (Q7QCC7 whole entry partner) above

Q: With C=CC(O)CCCCC (stereo not shown) [1-octen-3-ol] as the molecule, how does the EC50 [1] read?
A: The EC50 was 186 nM.

Q: What does the source list for CCCCCC(C)=O [2-heptanone]?
A: concentration that could be detected [2]: 0.018 M; Sensitivity limit ([3]; estimated visually from graph): 10^−8 − 10^−6 M*; EC50 ([3]; ref 12): 45.6 µM

Q: For CCc1ccc(OC)c(O)c1 [4-ethyl guaiacol], which limit of detection ([4]; nanodiscs 1:100 dilution) is on record?
A: Its limit of detection is “below 1 fM”.

Q: What about the “concentration at which clear electronic response starts” value ([4]; real time current measurement mode) of the same molecule?
A: The value was 1 fM.

Q: And the LOD [5]?
A: The LOD was 0.1 fM.

Q: Which EC50 [6] does the source give for Cc1ccc(O)cc1 [4-methylphenol] here?
A: The EC50 was 412 nM.

Q: Which Sensitivity limit [7] does the source give for CCCC/C=C\CCC/C=C/CCCCC=O [(E,Z) -6,11-hexadecadienal] here?
A: Its Sensitivity limit is 10^−15 M*.

Q: Which results are given for CCC/C=C\C=C\CCCCCCCCC=O [Bombykal]?
A: EC50 [8]: 2030 nM; Sensitivity limit [8]: 300 nM; Sensitivity limit ([9]; estimated visually from graph): 10^−8 − 10^−6 M*; EC50 ([9]; ref 12): 380 nM

Q: Which Sensitivity limit ([10]; estimated visually from graph) does the source give for CCC/C=C\C=C\CCCCCCCCCO [Bombykol] here?
A: Its Sensitivity limit is 10^−8 − 10^−6 M*.

Q: What about the EC50 ([10]; ref 12) of the same molecule?
A: The EC50 was 250 nM.

Q: And the EC50 ([11]; ref 29)?
A: Its EC50 is 34 µM.

Q: And the EC50 ([11]; ref 30)?
A: The EC50 was 5.9 µM.

Q: And the EC50 [12]?
A: The EC50 was 4.39 µM.

Q: What about the Sensitivity limit [12] of the same molecule?
A: Its Sensitivity limit is 1000 nM.

Q: Which Sensitivity limit [13] does the source give for CC(C)=CCCC(C)=CC=O [Citral] here?
A: Its Sensitivity limit is 10^−15 M*.

Q: Which results are given for CC/C=C/CCCCCCCCCCOC(C)=O [E11 pheromone]?
A: EC50 [14]: 12.5 nM; Sensitivity limit [14]: 10^−9 M^

Q: For CC/C=C/CCCCCCCCCCO [E11-14:OH], which Sensitivity limit ([15]; estimated visually from graph) is on record?
A: The Sensitivity limit was 10^−7 M*.

Q: What about the EC50 ([15]; ref 27) of the same molecule?
A: The EC50 was 1000 nM.

Q: Which EC50 [16] does the source give for C/C=C/CCCCCCCCCCCOC(C)=O [E12-14:OAc] here?
A: The EC50 was 260 nM.

Q: For CCCC/C=C/CCCCCCCCCC=O [EII-16:Ald], which Sensitivity limit ([17]; estimated visually from graph) is on record?
A: The Sensitivity limit was 10^−7 M*.

Q: What about the EC50 ([17]; ref 28) of the same molecule?
A: Its EC50 is 1000 nM.

Q: With C/C=C/C/C=C\CCCCCCCCOC(C)=O [Z9, E12-14:OAc] as the molecule, how does the EC50 [18] read?
A: Its EC50 is 3.16 µM.

Q: Which EC50 [19] does the source give for CCCC/C=C\CCCCCCCCO [Z9-14:OH] here?
A: Its EC50 is 969 nM.

Q: Which EC50 [20] does the source give for CCCC/C=C\CCCCCCCC=O [Z9-14:ald] here?
A: The EC50 was 979 nM.

Q: With CCCC/C=C\CCCCCCCCCCOC(C)=O [Z11-16:Ac] as the molecule, how does the Sensitivity limit ([21]; estimated visually from graph) read?
A: The Sensitivity limit was 10^−7 M*.

Q: What about the EC50 ([21]; ref 28) of the same molecule?
A: Its EC50 is 1000 nM.

Q: For CCCC/C=C\CCCCCCCCCC=O [Z11-16:Ald], which EC50 [22] is on record?
A: Its EC50 is 979 nM.

Q: What about the Sensitivity limit ([23]; estimated visually from graph) of the same molecule?
A: The Sensitivity limit was 10^−8 − 10^−6 M*.

Q: And the EC50 ([23]; ref 12)?
A: Its EC50 is 2520 nM.

Q: Which Sensitivity limit ([24]; estimated visually from graph) does the source give for O=C(O)c1ccccc1 [benzoic acid] here?
A: The Sensitivity limit was 10^−14 M*.

Q: And the EC50 ([24]; ref 18)?
A: Its EC50 is 0.0142 nM.

Q: What about the Sensitivity limit ([25]; estimated visually from graph) of the same molecule?
A: Its Sensitivity limit is 10^−11 M*.

Q: What about the EC50 ([25]; ref 18) of the same molecule?
A: The EC50 was 0.144 nM.

Q: With CCCC(=O)OCC [ethyl butyrate] as the molecule, how does the Sensitivity limit ([26]; estimated visually from graph) read?
A: Its Sensitivity limit is 10^−12 M*.

Q: And the EC50 ([26]; ref 3)?
A: Its EC50 is 0.0158 nM.

Q: What does the source list for C=CCc1ccc(O)c(OC)c1 [eugenol]?
A: Ec50 (Log) [27]: Log = −6.54; Sensitivity limit (Log) ([27]; ref 23, estimated visually from graph): Log = −7*; EC50 [28]: 34.4 nM

Q: Which “Ec50 (Log)” value [29] does the source give for CCCCCCCCC1CCC(=O)O1 (stereo not shown) [g-dodecalactone] here?
A: Its value is “Log = −7.01”.

Q: What about the “Sensitivity limit (Log)” value ([29]; ref 25, estimated visually from graph) of the same molecule?
A: The value was “Log = −8*”.

Q: With CC(C)=CCC/C(C)=C/CO [geraniol] as the molecule, how does the detection limit [30] read?
A: The detection limit was ~10^−6 M.

Q: And the Sensitivity limit ([31]; estimated visually from graph)?
A: The Sensitivity limit was 10^−14 M*.

Q: What about the EC50 ([31]; ref 17) of the same molecule?
A: The EC50 was 1.8 pM.

Q: Which EC50 [32] does the source give for CC(=O)OC/C=C(\C)CCC=C(C)C [geranyl acetate] here?
A: The EC50 was 1000 nM.

Q: With c1ccc2[nH]ccc2c1 [indole] as the molecule, how does the EC50 [33] read?
A: The EC50 was 16.7 nM.

Q: And the EC50 [34]?
A: The EC50 was 137 nM.

Q: For C=CC(C)(O)CCC=C(C)C (stereo not shown) [linalool], which Sensitivity limit ([35]; estimated visually from graph) is on record?
A: The Sensitivity limit was 10^−10 M*.

Q: And the EC50 ([35]; ref 18)?
A: The EC50 was 4.69 nM.

Q: And the detection limit [30]?
A: The detection limit was ~10^−6 M.
